# Results from the NIST ThermoML archive (doi:10.1016/j.tca.2018.05.010).
# Values joined by “and” are separate entries in the source; they are usually repeats but may differ in a detail not shown here. Identical values can stand only once. ± gives the expanded uncertainty stated by the source.
# Experiments:
# [1] = Crystal; for vapor or sublimation pressure: Transpiration method; for Normal melting temperature: DTA
# [2] = Molar enthalpy of transition or fusion; conditions: Crystal; DSC
SMILES,vapor or sublimation pressure ([1]; 352.9 K) [kPa],vapor or sublimation pressure ([1]; 358.2 K) [kPa],vapor or sublimation pressure ([1]; 362.9 K) [kPa],vapor or sublimation pressure ([1]; 367.8 K) [kPa],vapor or sublimation pressure ([1]; 373.2 K) [kPa],vapor or sublimation pressure ([1]; 378 K),vapor or sublimation pressure ([1]; 387.9 K) [kPa],Normal melting temperature [1] [°C],Molar enthalpy of transition or fusion [2] [kcal/mol],vapor or sublimation pressure ([1]; 362.7 K) [kPa],vapor or sublimation pressure ([1]; 373 K) [kPa],vapor or sublimation pressure ([1]; 383 K),vapor or sublimation pressure ([1]; 388 K) [kPa],vapor or sublimation pressure ([1]; 392.7 K) [kPa]
O=C(O)C(O)c1ccccc1 (stereo not drawn) [mandelic acid],0.00068 ± 0.0003,0.00116 ± 0.00048,0.00193 ± 0.00074,0.00284 ± 0.0011,0.0051 ± 0.0022,0.0076 ± 0.003 kPa and 0.00771 ± 0.0031 kPa,0.0179 ± 0.0067,121.2 ± 1.1,6 ± 0.167,,,,,
O=C(O)[C@@H](O)c1ccccc1 [(S)-2-hydroxy-2-phenylacetic acid],,,,0.00264 ± 0.001,,0.00647 ± 0.0026 kPa,,134.6 ± 1.1,5.93 ± 0.143,0.0016 ± 0.00062,0.00431 ± 0.0016,0.0109 ± 0.0042 kPa and 0.0107 ± 0.0041 kPa,0.0164 ± 0.0061,0.0241 ± 0.0088
